From patent publication US20150224169A1, “COMPOUNDS AND METHODS FOR SELECTIVELY TARGETING CANCER STEM CELLS” (McMaster University, priority 2012, published 2015)
Read-outs that look alike come from different tables or passages of the source.

What was measured:
[1] = test system: variant neoplastic stem cells; conditions: Sachlos et al., 2012; cited from earlier work
[2] = test system: AML patient cells; type: cell-based, human; conditions: for Ability of AML cells to form CFUs / Selectivity ratio of total CFUs from cord blood cells versus blast CFUs from AML samples: 0.1 μM; for Ability of AML cells to form CFUs / CFU forming potential of AML cells: treated one day, 14 days in methylcellulose; for Selectivity ratio of total CFUs from cord blood cells versus blast CFUs from AML samples: normalized to 0.1% DMSO control, ratio greater than 1 = selective for AML
Source text: (§1) Methylcellulose assays provide a functional and quantitative measure of hematopoietic progenitor/stem cell proliferation/clonogenic potential based on the formation of colony-forming units (CFUs) in vitro. Hematopoietic progenitor/stem cells from lineage-depleted human umbilical cord blood are capable of proliferation and differentiation to all blood lineages. AML blast cells from leukemia patients are myeloid progenitor cells blocked in differentiation that are sustained by a self-renewing leukemic stem cell(s). In this experiment, lineage-depleted cord blood cells and AML samples were each treated with Nystatin for one day and then cultured in methylcellulose for 14 days after which the numbers of CFUs were determined.
(§2) Cord blood and AML patient cells were seeded in 96-well plates at 500 cells and 25000 cells respectively in 50 μL medium containing StemSpan™ (Stemcell Technologies), 200 ng/mL stem cell factor (SCF, R&D Systems), 200 ng/mL Flt-3 (R&D Systems) and 40 ng/mL thrombopoietin (TPO, Stemcell Technologies). Then, 50 μL StemSpan containing 0.2 μM, 2 μM or 20 μM compounds was added to each well containing the cells. The cells were incubated for 24 hours at 37° C., after which the compound medium was removed from the wells and replaced with 50 μL medium containing StemSpan, 100 ng/mL SCF, 100 ng/mL Flt-3 and 20 ng/mL TPO. The cells from each well were mixed with 500 μL Methocult™ (Stemcell Technologies, H4434), and seeded into 12-well plates. The samples were imaged and scored after 14 days of incubation at 37° C.

[3] = test system: lineage-depleted human umbilical cord blood cells; assay: Methylcellulose assay, CFU formation; type: cell-based; conditions: for Normal hematopoietic progenitor/stem cell proliferation activity (CFU-forming potential of cord blood cells): 0.1 μM, treated one day, 14 days in methylcellulose
Source text: as §1, §2

[4] = test system: variant neoplastic stem cells (v1O4) relative to normal stem cells (H9); assay: Selective-activity dose-response screening assay (cell counts, v1O4 versus H9); type: cell-based, human; conditions: dose-response curves FIG. 3B
Protocol: Briefly, variant neoplastic stem cells (v1O4) cells were seeded into Matrigel-coated 96 well plates (5000 cells/well) containing mouse embryonic fibroblast conditioned media (MEFCM) supplemented with 8 ng/mL bFGF, and treated for 72 hours with compounds dissolved in DMSO. The final concentration of each compound used in treatment was either 10 μM or 1 μM (n=3). Control wells were treated with 0.1% DMSO (low control) or 100 ng/ml BMP4 (high control to induce LOP). At the end of 72 hours, cells were fixed, stained with Hoechst and imaged by automated microscopy. GFP intensity and Hoechst signal were quantified as measures of LOP and cell count, respectively, and compounds with a Z-score of more than 3 standard deviations from the mean for reduced cell count and LOP were chosen as hits.
In the second stage also shown in FIG. 1, 8- or 10-point dilutions for each compound were tested on variant neoplastic stem cells (v1O4) and normal stem cells (H9 cells) cells to generate dose-response curves. […] Dose response data were fit with a 4-parameter Hill equation to derive EC50, slopes, min and max values using IDBS ActivityBase software. The EC50 values were then used to calculate a selective-activity potency ratio (H9 EC50/v1O4 EC50).

[5] = higher concentrations (above 0.1 μM)

Row | SMILES | Ability of AML cells to form CFUs [2] | Selectivity ratio of total CFUs from cord blood cells versus blast CFUs from AML samples [2] | Normal hematopoietic progenitor/stem cell proliferation activity (CFU-forming potential of cord blood cells) [3] | Selectivity for cancer stem cells based on a single 10 μM concentration point [4] | further results
1 | CSc1ccc2c(c1)N(CCC1CCCCN1C)c1ccccc1S2 (centres unmarked) [Thioridazine] | – | – | – | – | Action on variant neoplastic stem cells [1]: inducing differentiation through a loss of pluripotency
2 | C[C@@H]1[C@H](O)[C@@H](C)/C=C/C=C/CC/C=C/C=C/C=C/C=C/C(O[C@H]2O[C@H](C)[C@@H](O)[C@H](N)[C@@H]2O)CC2O[C@](O)(CC(O)C(O)CCC(O)CC(O)CC(O)CC(=O)O[C@H]1C)CC(O)C2C(=O)O (some centres unmarked) [Nystatin] | reduced the ability of AML cells to form CFUs | 1.5 | little effect | – | CFU forming potential of AML cells ([2]; 1 μM): no effect; CFU forming potential of AML cells ([2]; 10 μM): no effect
3 | Nc1ccn([C@@H]2O[C@H](CO)[C@@H](O)[C@@H]2O)c(=O)n1 [AraC, cytarabine] | reduced the ability of AML samples to form CFUs | no statistically significant difference | also affected the CFU-forming potential of cord blood cells | – | Toxicity to AML cells in methylcellulose assay [2, 5]: toxic; Toxicity to cord blood cells in methylcellulose assay [3, 5]: toxic
4 | CS(=O)(=O)O.Cn1cc(C2=C(c3cn(CCCSC(=N)N)c4ccccc34)C(=O)NC2=O)c2ccccc21 [Ro 31-8220 mesylate] | – | – | – | would have not have been considered selective | –
5 | Nc1nc(O)c2[nH]nnc2n1 [Azaguanine-8] | – | – | – | would have not have been considered selective | –
6 | CCCCc1ccc2[nH]c(NC(=O)OC)nc2c1 [Parbendazole] | – | – | – | would have not have been considered selective | –
